Earlier results, collected in patent publication US20070190209A1, “All natural multivitamin and multimineral dietary supplement formulations for enhanced absorption and biological utilization” (Mannatech, Inc., priority 2006, published 2007).
Like-named read-outs stand apart in the source and are kept apart here. Each block holds one molecule with its values, some of them ahead of it.

How the values were obtained:
[1] = test system: human cytosolic glutathione S-transferases (GSTs); settings: van Haften, et al. (2002, 2003)
[2] = test system: intestinal glucuronidation
osteoclasts = settings: Rao, et al. (2003)
[3] = test system: phase II detoxifying enzymes; settings: glutathione transferases, NAD(P)H:quinone reductases, epoxide hydrolases; literature
bone components = settings: in vitro, combined with zinc; Uchiyama, et al. (2005)
thyroid gland of rats = settings: Radovic, et al. (2005)
[4] = test system: mammalian glutathione transferases; settings: Kulkarni and Kulkarni (1995)
[5] = by decreasing or eliminating intestinal glucuronidation, Mizuma and Awazu (2004)

Molecule: tocopherols
activity of human cytosolic GSTs [1]: inhibited

Molecule: Cc1c(C)c2c(c(C)c1O)CC[C@@](C)(CCC[C@H](C)CCC[C@H](C)CCCC(C)C)O2 [alpha-tocopherol]
activity of human cytosolic GSTs [1]: inhibited

absorption of model drug alpha-napthol [2, 5]: increase the absorption
Molecule: O=c1c(O)c(-c2ccc(O)c(O)c2)oc2cc(O)cc(O)c12 [quercetin]

absorption of model drug alpha-napthol [2, 5]: increase the absorption
Molecule: O=c1cc(-c2ccccc2)oc2cc(O)cc(O)c12 [chrysin]

Molecule: CC(C)=CCC/C(C)=C/C=C/C(C)=C/C=C/C(C)=C/C=C/C=C(C)/C=C/C=C(C)/C=C/C=C(\C)CCC=C(C)C [lycopene]
formation of osteoclasts and osteoclastic mineral resorption (osteoclasts): prevented the formation of osteoclasts and osteoclastic mineral resorption

Molecule: CSCCCCC(=NOS(=O)(=O)O)S[C@@H]1O[C@H](CO)[C@@H](O)[C@H](O)[C@H]1O [glucoerucin]
induction of phase II detoxifying enzymes [3]: potent inducers

Molecule: CC1=C(/C=C/C(C)=C/C=C/C(C)=C/C=C/C=C(C)/C=C/C=C(C)/C=C/C2=C(C)C[C@@H](O)CC2(C)C)C(C)(C)CCC1 [beta-cryptoxanthin]
anabolic effects on bone components (bone components): synergistic anabolic effects

absorption of model drug alpha-napthol [2, 5]: increase the absorption
Molecule: Oc1cc(O)c2c(c1)O[C@H](c1ccc(O)c(O)c1)[C@H](O)C2 [epicatechin]

Molecule: COc1cc(O)c(CC=C(C)C)c(O)c1C(=O)/C=C/c1ccc(O)cc1 [xanthohumol]
uptake of iodine into the thyroid gland (thyroid gland of rats): stimulates the uptake of iodine

Molecule: C[S+]([O-])CCCC/C(=N\OS(=O)(=O)O)S[C@@H]1O[C@H](CO)[C@@H](O)[C@H](O)[C@H]1O (stereo partly shown) [glucoraphanin]
induction of phase II detoxifying enzymes [3]: potent inducers

Molecule: tocotrieneols
activity of human cytosolic GSTs [1]: inhibited

Molecule: vitamin A
inhibition of mammalian glutathione transferases [4]: inhibit mammalian glutathione transferases at low concentrations

Molecule: O=C(O[C@@H]1Cc2c(O)cc(O)cc2O[C@@H]1c1cc(O)c(O)c(O)c1)c1cc(O)c(O)c(O)c1 [epigallocatechin galleate (ECGC), epigallocatechin galleate]
absorption of model drug alpha-napthol [2]: increase the absorption
